Test results published in patent publication US11192899B2 (MERCK PATENT GMBH, priority 2017, dated 2021).
Like-named read-outs stand apart in the source and are kept apart here.

Columns and labels:
Format in all cases: cell-based
human A2A receptor = target: T1, human A2A receptor (Homo sapiens, UniProt P29274); experiment: cAMP HTRF functional assay, recombinant HEK293 cells expressing human A2A receptor, agonist NECA
T1 construct: expressed in transfected cells; host or cells: HEK293
Description: (§1) The functional activities of human A2A, A2B, A1 and A3 receptors were determined by quantification of cAMP, being the second messenger for adenosine receptors.
(§2) Obtained raw data were normalized against the inhibitor control and the neural control (DMSO) and the normalized data were fitted using GeneData software.

human A1 receptor = target: T2, human A1 receptor (Homo sapiens, UniProt P30542); experiment: cAMP HTRF functional assay, recombinant CHO cells expressing human A1 receptor, forskolin and agonist CPA
T2 construct: expressed in transfected cells; host or cells: CHO
T2 sequence (P30542 1-326): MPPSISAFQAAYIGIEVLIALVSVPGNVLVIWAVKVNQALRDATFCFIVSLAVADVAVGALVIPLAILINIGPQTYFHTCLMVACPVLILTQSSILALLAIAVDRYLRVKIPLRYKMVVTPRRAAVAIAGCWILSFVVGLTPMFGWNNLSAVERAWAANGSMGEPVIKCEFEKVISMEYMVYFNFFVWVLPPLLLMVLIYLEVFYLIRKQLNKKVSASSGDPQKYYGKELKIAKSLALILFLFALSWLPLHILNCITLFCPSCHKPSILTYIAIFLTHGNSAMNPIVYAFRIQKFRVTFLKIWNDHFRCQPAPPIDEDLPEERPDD
Description: as §1
For human A1 and A3 receptors, recombinant CHO cells, expressing either A1 or A3-receptor, were used. As both receptors couple to Gi proteins, the assay protocol was adapted:
Cells were seeded into 384-well plates, forskolin, test compounds and agonists (CPA for A1- and IB-MECA for A3-receptor) were added. After 30 min incubation, HTRF reagents (cAMP dynamic 2, Cis Bio) were added and the cellular cAMP levels were determined using the ENVISION (Perkin Elmer) plate reader.
as §2

A2B receptors = target: T3, A2B receptors (Homo sapiens, UniProt P29275); experiment: cAMP HTRF functional assay, recombinant HEK293 cells expressing human A2B receptor, agonist NECA; design: expressed in transfected cells; host or cells: HEK293
T3 sequence (P29275 1-332): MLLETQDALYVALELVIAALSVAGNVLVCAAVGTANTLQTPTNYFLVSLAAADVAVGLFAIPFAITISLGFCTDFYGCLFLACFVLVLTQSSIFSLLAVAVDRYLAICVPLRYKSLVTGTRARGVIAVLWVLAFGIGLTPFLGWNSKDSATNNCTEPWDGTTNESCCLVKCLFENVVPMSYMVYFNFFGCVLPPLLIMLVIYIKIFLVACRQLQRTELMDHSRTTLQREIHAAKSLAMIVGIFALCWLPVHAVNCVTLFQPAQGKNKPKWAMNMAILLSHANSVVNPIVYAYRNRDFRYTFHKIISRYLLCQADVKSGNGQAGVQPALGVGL
Description: as §1, §2

T1 sequence (P29274 whole entry): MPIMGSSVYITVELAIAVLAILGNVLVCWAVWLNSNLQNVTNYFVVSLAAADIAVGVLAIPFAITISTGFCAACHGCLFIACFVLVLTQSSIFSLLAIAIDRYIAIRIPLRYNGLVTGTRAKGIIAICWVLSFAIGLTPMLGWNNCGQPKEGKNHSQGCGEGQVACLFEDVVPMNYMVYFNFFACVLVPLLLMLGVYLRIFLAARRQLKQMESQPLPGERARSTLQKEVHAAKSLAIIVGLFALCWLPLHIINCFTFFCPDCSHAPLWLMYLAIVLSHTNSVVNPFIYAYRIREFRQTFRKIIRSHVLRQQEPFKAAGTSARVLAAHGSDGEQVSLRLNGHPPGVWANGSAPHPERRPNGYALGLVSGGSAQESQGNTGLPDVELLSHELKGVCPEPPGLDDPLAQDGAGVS

Compound	IC50 (human A2A receptor; recombinant HEK293 cells, cAMP, agonist NECA) [nM]	IC50 (human A1 receptor) [nM]	IC50 (human A2A receptor) [nM]	IC50 (A2B receptors) [nM]
4-Hydroxy-4-methyl-piperidine-1-carboxylic acid (5-methoxy-8-phenyl-pyrido[3,4-b]pyrazin-3-yl)-amide [compound 15]	< 100			
COc1ccc(C2CCOCC2)c2ncc(NC(=O)N3CC4(C3)CS(=O)(=O)C4)nc12 [compound 18]		> 1000	< 100	
COc1ccc(-c2cccc(F)c2)c2ncc(NC(=O)N3CCC(C)(O)CC3)nc12 [compound 62]		< 1000	< 100	> 1000
COc1ccc(C2CCOCC2)c2ncc(NC(=O)c3cnn(C)c3)nc12 [compound 68]		> 1000	< 10	> 1000
COc1ccc(C2CCOCC2)c2ncc(NC(=O)c3cnc(C)s3)nc12 [compound 78]		> 1000	< 10	< 1000
C#CCC1(O)CCN(C(=O)Nc2cnc3c(C4CCOCC4)cnc(OC)c3n2)CC1 [compound 103, 4-Hydroxy-4-prop-2-ynyl-piperidine-1-carboxylic acid [5-methoxy-8-(tetrahydro-pyran-4-yl)-pyrido[3,4-b]pyrazin-3-yl]-amide]		> 1000	< 10	> 1000
COc1ncc(C2CCOCC2)c2ncc(NC(=O)N3CCC(C)(CO)CC3)nc12 [compound 104, 4-Hydroxymethyl-4-methyl-piperidine-1-carboxylic acid [5-methoxy-8-(tetrahydro-pyran-4-yl)-pyrido[3,4-b]pyrazin-3-yl]-amide]			< 10	
CCCCc1ccc(OC)c2nc(NC(=O)N3CCC(C)(O)CC3)cnc12 [compound 108, N-(5-butyl-8-methoxyquinoxalin-2-yl)-4-hydroxy-4-methylpiperidine-1-carboxamide]		> 1000	< 100	> 1000
COc1ccc(C2=CCOCC2)c2ncc(NC(=O)N3CCC(C)(O)CC3)nc12 [compound 109, N-[5-(3,6-dihydro-2H-pyran-4-yl)-8-methoxyquinoxalin-2-yl]-4-hydroxy-4-methylpiperidine-1-carboxamide]		< 1000	< 10	> 1000
COc1ccc(-c2cccnc2)c2nc(NC(=O)N3CCC(C)(O)CC3)cnc12 [compound 112, 4-hydroxy-N-[5-methoxy-8-(pyridin-3-yl)quinoxalin-2-yl]-4-methylpiperidine-1-carboxamide]		> 1000	< 100	
COc1ccc(-c2cnn(Cc3ccccn3)c2)c2ncc(NC(=O)N3CCC(C)(O)CC3)nc12 [compound 114, 4-hydroxy-N-(8-methoxy-5-{1-[(pyridin-2-yl)methyl]-1H-pyrazol-4-yl}quinoxalin-2-yl)-4-methylpiperidine-1-carboxamide]		< 1000	< 100	> 1000
CNC(=O)c1cc(-c2ccc(OC)c3nc(NC(=O)N4CCC(C)(O)CC4)cnc23)ccn1 [compound 115, 4-{2-[(4-hydroxy-4-methylpiperidine-1-carbonyl)amino]-8-methoxyquinoxalin-5-yl}-N-methylpyridine-2-carboxamide]			< 100	
COc1ccc(-c2cnn(C3CN(C(=O)OC(C)(C)C)C3)c2)c2ncc(NC(=O)N3CCC(C)(O)CC3)nc12 [compound 116, tert-butyl 3-(4-{2-[(4-hydroxy-4-methylpiperidine-1-carbonyl)amino]-8-methoxyquinoxalin-5-yl}-1H-pyrazol-1-yl)azetidine-1-carboxylate]		< 1000	< 100	> 1000
COCCOc1cccc(-c2ccc(OC)c3nc(NC(=O)N4CCC(C)(O)CC4)cnc23)c1 [compound 117, 4-hydroxy-N-{8-methoxy-5-[3-(2-methoxyethoxy)phenyl]quinoxalin-2-yl}-4-methylpiperidine-1-carboxamide]		> 1000	< 100	> 1000
COCCOCCn1cc(-c2ccc(OC)c3nc(NC(=O)N4CCC(C)(O)CC4)cnc23)cn1 [compound 119, 4-hydroxy-N-(8-methoxy-5-{1-[2-(2-methoxyethoxy)ethyl]-1H-pyrazol-4-yl}quinoxalin-2-yl)-4-methylpiperidine-1-carboxamide]		> 1000	< 100	> 1000
COc1ccc(-c2cccc(F)c2F)c2ncc(NC(=O)c3cnc(C)o3)nc12 [compound 125, N-[5-(2,3-difluorophenyl)-8-methoxyquinoxalin-2-yl]-2-methyl-1,3-oxazole-5-carboxamide]		< 1000	< 100	
COc1ccc(-c2ccccc2F)c2ncc(NC(=O)c3cnc(C)o3)nc12 [compound 129, N-[5-(2-fluorophenyl)-8-methoxyquinoxalin-2-yl]-2-methyl-1,3-oxazole-5-carboxamide]			< 10	< 100
COc1ccc(C2CCOCC2)c2ncc(NC(=O)c3cnc(C)o3)nc12 [compound 130, N-[8-methoxy-5-(oxan-4-yl)quinoxalin-2-yl]-2-methyl-1,3-oxazole-5-carboxamide]		> 1000	< 10	< 100
COc1ccc(C2=CCOCC2)c2ncc(NC(=O)c3cnc(C)o3)nc12 [compound 132, N-[5-(3,6-dihydro-2H-pyran-4-yl)-8-methoxyquinoxalin-2-yl]-2-methyl-1,3-oxazole-5-carboxamide]		< 1000	< 10	< 100
COc1ccc(C2=CCOCC2)c2ncc(NC(=O)c3cnn(C)c3)nc12 [compound 135, N-[5-(3,6-dihydro-2H-pyran-4-yl)-8-methoxyquinoxalin-2-yl]-1-methyl-1H-pyrazole-4-carboxamide]		< 100	< 10	< 100
COc1ccc(C2=CCOCC2)c2ncc(NC(=O)C3(N)CC3)nc12 [compound 137, 1-amino-N-[5-(3,6-dihydro-2H-pyran-4-yl)-8-methoxyquinoxalin-2-yl]cyclopropane-1-carboxamide]		< 1000	< 10	> 1000
COc1ccc(C2=CCOCC2)c2ncc(NC(=O)C3(C(=O)N(C)C)CC3)nc12 [compound 144, N′1-[5-(3,6-dihydro-2H-pyran-4-yl)-8-methoxyquinoxalin-2-yl]-N1,N1-dimethylcyclopropane-1,1-dicarboxamide]		> 1000	< 100	
COc1ccc(C2=CCOCC2)c2ncc(NC(=O)C3(CN(C)C)CC3)nc12 [compound 145, N-[5-(3,6-dihydro-2H-pyran-4-yl)-8-methoxyquinoxalin-2-yl]-1-[(dimethylamino)methyl]cyclopropane-1-carboxamide]		> 1000	< 100	
COc1ccc(C2=CCOCC2)c2ncc(NC(=O)c3nnc(C)s3)nc12 [compound 146, N-[5-(3,6-dihydro-2H-pyran-4-yl)-8-methoxyquinoxalin-2-yl]-5-methyl-1,3,4-thiadiazole-2-carboxamide]		> 1000	< 100	
COc1ccc(-c2cnn(C(F)F)c2)c2ncc(NC(=O)N3CCC(C)(O)CC3)nc12 [compound 158, N-{5-[1-(difluoromethyl)-1H-pyrazol-4-yl]-8-methoxyquinoxalin-2-yl}-4-hydroxy-4-methylpiperidine-1-carboxamide]		> 1000	< 100	
COc1ccc(N2CCCOCC2)c2ncc(NC(=O)C3CC3)nc12 [compound 161, N-[8-methoxy-5-(1,4-oxazepan-4-yl)quinoxalin-2-yl]cyclopropanecarboxamide]		> 1000	< 100	
